Results published in patent US20240116985A1, “STAPLED PEPTIDES AND METHODS THEREOF” (priority 2020, published 2024).

Assay: CHI Log D procedure
Assay type: physicochemical

CHI Log D (pH 7.4) | logD (pH 7.4, CHI Log D) | logD (pH 7.4) | SMILES
2.03 |  |  | CC(=O)N1CCC[C@]12CC=CCCCC1(CCCC=CCCCCCC[C@@](C)(C(=O)N[C@@H](Cc3ccccc3)C(=O)N[C@@H](Cc3c[nH]c4ccccc34)C(=O)N[C@@H](CCC(N)=O)C(N)=O)NC(=O)[C@H](C(C)C)NC(=O)[C@H](Cc3cccc(Cl)c3)NC(=O)[C@H](C)NC(=O)[C@H](C)NC(=O)[C@H](CC(=O)O)NC(=O)[C@H](CC(=O)O)NC1=O)NC(=O)[C@H](C)NC(=O)[C@H](CC(=O)O)NC2=O (stereo partly drawn) [I-306, Ac-PL3-Asp-Ala-B5-Asp-Asp-Ala-Ala-3C1F-Val-S8-Phe-Trp-Gln-NH2]
2.03 |  |  | CC(=O)N1CCC[C@]12CC=CCCCC1(CCCC=CCCCCCC[C@@](C)(C(=O)N[C@@H](Cc3ccccc3)C(=O)N[C@@H](Cc3c[nH]c4ccccc34)C(=O)N[C@@H](CCC(N)=O)C(N)=O)NC(=O)[C@H](C(C)C)NC(=O)[C@H](Cc3ccc(Cl)cc3)NC(=O)[C@H](C)NC(=O)[C@H](C)NC(=O)[C@H](CC(=O)O)NC(=O)[C@H](CC(=O)O)NC1=O)NC(=O)[C@H](C)NC(=O)[C@H](CC(=O)O)NC2=O (stereo partly drawn) [I-308, Ac-PL3-Asp-Ala-B5-Asp-Asp-Ala-Ala-4C1F-Val-S8-Phe-Trp-Gln-NH2]
 | 2.12 |  | CC(=O)N1CCC[C@]12CC=CCCCC1(CCCC=CCCCCCC[C@@](C)(C(=O)N[C@@H](Cc3ccccc3)C(=O)N[C@@H](Cc3c[nH]c4ccccc34)C(=O)N[C@@H](CO)C(N)=O)NC(=O)[C@H](CO)NC(=O)[C@H](Cc3ccccc3)NC(=O)[C@H](C)NC(=O)[C@H](C)NC(=O)[C@H](CC(=O)O)NC(=O)[C@H](CC(=O)O)NC1=O)NC(=O)[C@H](C)NC(=O)[C@H](CC(=O)O)NC2=O (stereo partly drawn) [I-333, Ac-PL3-Asp-Ala-B5-Asp-Asp-Ala-Ala-Phe-Ser-S8-Phe-WCHO-Ser-NH2]
4.36 |  |  | CC[C@H](C)[C@@H]1NC(=O)[C@H](CC(=O)O)NC(=O)[C@]2(CC=CCCCC3(CCCC=CCCCCCC[C@@](C)(C(=O)N[C@@H](Cc4ccccc4)C(=O)N[C@@H](Cc4csc5ccccc45)C(=O)N[C@@H](CCC(N)=O)C(N)=O)NC(=O)[C@H](CCC(N)=O)NC(=O)[C@H](Cc4ccccc4)NC(=O)[C@H](C)NC(=O)[C@H](C)NC(=O)[C@H](CCC(=O)O)NC(=O)[C@H](CNS(=O)(=O)C(F)(F)F)NC3=O)NC1=O)CCCN2C(C)=O (stereo partly drawn) [I-630, Ac-PL3-Asp-Ile-B5-[Tf]Dap-Glu-Ala-Ala-Phe-Gln-S8-Phe-BztA-Gln-NH2]
4.365 |  |  | CC[C@H](C)[C@@H]1NC(=O)[C@H](CC(=O)O)NC(=O)[C@]2(CC=CCCCC3(CCCC=CCCCCCC[C@@](C)(C(=O)N[C@@H](Cc4ccccc4)C(=O)N[C@@H](Cc4csc5ccccc45)C(=O)N[C@@H](CCC(N)=O)C(N)=O)NC(=O)[C@H](CCC(N)=O)NC(=O)[C@H](Cc4ccccc4)NC(=O)[C@H](C)NC(=O)[C@H](C)NC(=O)[C@H](CCC(=O)O)NC(=O)[C@H](CNS(=O)(=O)C(F)(F)F)NC3=O)NC1=O)CCCN2C(C)=O (stereo partly drawn) [I-631, Ac-PL3-Asp-Ile-B5-[Tf]Dap-Glu-Ala-Ala-Phe-Gln-S8-Phe-BztA-Gln-NH2]
2.16 |  |  | CC[C@H](C)[C@@H]1NC(=O)C[C@H](CC(=O)O)NC(=O)[C@]2(CC=CCCCC3(CCCC=CCCCCCC[C@@](C)(C(=O)N[C@@H](Cc4ccccc4)C(=O)N[C@@H](Cc4csc5ccccc45)C(=O)N[C@@H](CCC(N)=O)C(N)=O)NC(=O)[C@H](CCC(N)=O)NC(=O)[C@H](Cc4ccccc4)NC(=O)[C@H](C)NC(=O)[C@H](C)NC(=O)[C@H](CCC(=O)O)NC(=O)[C@H](CC(=O)O)NC3=O)NC1=O)CCCN2C(C)=O (stereo partly drawn) [I-670, Ac-PL3-RbGlu-Ile-B5-Asp-Glu-Ala-Ala-Phe-Gln-S8-Phe-BztA-Gln-NH2]
2.035 |  | 2.0 | CC(=O)N1CCC[C@]12CC=CCCCC1(CCCC=CCCCOC(=O)N3CC[C@@](C(=O)N[C@@H](Cc4ccsc4)C(=O)N[C@@H](Cc4csc5ccccc45)C(=O)N[C@@H](CCC(N)=O)C(N)=O)(C3)NC(=O)[C@H](CC(N)=O)NC(=O)[C@H](Cc3ccccc3)NC(=O)[C@H](C)NC(=O)[C@H](C)NC(=O)[C@H](CC(=O)O)NC(=O)[C@H](CC(=O)O)NC1=O)NC(=O)[C@H](CC(C)(C)C)NC(=O)[C@H](CC(=O)O)NC2=O (stereo partly drawn) [I-687, Ac-PL3-Asp-Npg-B5-Asp-Asp-Ala-Ala-Phe-Asn-PyrS2-3Thi-BztA-Gln-NH2]
2.372 |  |  | CC(=O)N1CCC[C@]12CC=CCCCC1(CCCC=CCCCCCC[C@@](C)(C(=O)N[C@@H](Cc3ccccc3)C(=O)N[C@@H](Cc3csc4ccccc34)C(=O)N(C)[C@@H](Cc3cnc[nH]3)C(N)=O)NC(=O)[C@H](CC(N)=O)NC(=O)[C@H](Cc3ccccc3)NC(=O)[C@H](C)NC(=O)[C@H](C)NC(=O)[C@H](CCC(=O)O)NC(=O)[C@H](CC(=O)O)NC1=O)NC(=O)[C@H](CC(C)C)NC(=O)[C@H](CC(=O)O)NC2=O (stereo partly drawn) [I-746, Ac-PL3-Asp-Leu-B5-Asp-Glu-Ala-Ala-Phe-Asn-S8-Phe-BztA-NMeHis-NH2]
 | 2.21 |  | CC(=O)N1CCC[C@]12CC=CCCCC1(CCCC=CCCCCCC[C@@](C)(C(=O)N[C@@H](Cc3ccsc3)C(=O)N[C@@H](Cc3csc4ccccc34)C(=O)N[C@@H](CCC(N)=O)C(=O)N[C@H](C)C(=O)N[C@@H](C)C(=O)N[C@@H](C)C(N)=O)NC(=O)[C@H](CC(N)=O)NC(=O)[C@H](Cc3ccccc3)NC(=O)[C@H](C)NC(=O)[C@H](C)NC(=O)[C@H](CC(=O)O)NC(=O)[C@H](CC(=O)O)NC1=O)NC(=O)[C@H](CC(C)(C)C)NC(=O)[C@H](CC(=O)O)NC2=O (stereo partly drawn) [I-875, Ac-PL3-Asp-Npg-B5-Asp-Asp-Ala-Ala-Phe-Asn-S8-3Thi-BztA-Gln-dAla-Ala]
1.759 |  |  | COCCOCCC(=O)NCCCC[C@@H]1NC(=O)[C@H](C)NC(=O)[C@H](CC(=O)O)NC(=O)[C@H](CC(=O)O)NC(=O)C2(CCCC=CCCCOC(=O)N3CC[C@@](C(=O)N[C@@H](Cc4ccsc4)C(=O)N[C@@H](Cc4csc5ccccc45)C(=O)N[C@@H](CCC(N)=O)C(N)=O)(C3)NC(=O)[C@H](CC(N)=O)NC(=O)[C@H](Cc3ccccc3)NC1=O)CCCC=CC[C@]1(CCCN1C(C)=O)C(=O)N[C@@H](CC(=O)O)C(=O)N[C@@H](CC(C)(C)C)C(=O)N2 (stereo partly drawn) [I-893, Ac-PL3-Asp-Npg-B5-Asp-Asp-Ala-[mPEG2]Lys-Phe-Asn-PyrS2-3Thi-BztA-Gln-NH2]
